Source: patent US9150526B2, “Biaryl-propionic acid derivatives and their use as pharmaceuticals” (SANOFI, priority 2013, dated 2015)

system: Recombinant human cathepsin A; experiment: Cathepsin A inhibitory activity (Bodipy FL-bradykinin substrate, microfluidic capillary electrophoresis); type: biochemical; details: read-out: CATH A IC50

| SMILES | IC50 |
| --- | --- |
| COc1c(F)cc(F)cc1-c1cccc(C(CC(=O)O)c2ncc(C)s2)c1 (centres unmarked) [compound 61] | 367 nM |
| COc1ccc(C)cc1-c1cc(F)cc(C(CC(=O)O)c2ncc(C)s2)c1 (centres unmarked) [compound 100] | 52 nM |
| COc1cc(F)ccc1-c1cccc(C(CC(=O)O)c2nccs2)c1 (centres unmarked) [compound 37] | 503 nM |
| COc1cccc(CO)c1-c1cc(Cl)cc(C(CC(=O)O)c2ncc(C)s2)c1 (centres unmarked) [compound 82] | 52 nM |
| COc1cc(C)cc(OC)c1-c1cccc(C(CC(=O)O)c2nnc(C)o2)c1 (centres unmarked) [compound 137] | 24 nM |
| COc1ccc(C(C)(C)C)cc1-c1cccc(C(CC(=O)O)c2ncco2)c1 (centres unmarked) [compound 13] | 103 nM |
| COc1cc(C)cc(OC)c1-c1cccc(C(CC(=O)O)c2ncco2)c1 (centres unmarked) [compound 16] | 49 nM |
| CCOc1ccc(C)cc1-c1cccc(C(CC(=O)O)c2nccs2)c1 (centres unmarked) [compound 25] | 147 nM |

Second part, the molecule after the results:

| IC50 | SMILES |
| --- | --- |
| 89 nM | COc1ccc(Cl)cc1-c1cc(F)cc(C(CC(=O)O)c2nnc(C)o2)c1 (centres unmarked) [compound 166] |
| 8 nM | COc1cc(C)cc(OC)c1-c1cc(Cl)cc(C(CC(=O)O)c2nnc(C)o2)c1 (centres unmarked) [compound 155] |
| 91 nM | CCOc1ccccc1-c1cccc(C(CC(=O)O)c2nnc(C)o2)c1 (centres unmarked) [compound 144] |
| 10 nM | COc1ccccc1-c1cc(Cl)cc(C(CC(=O)O)c2nnc(C)o2)c1 (centres unmarked) [compound 176] |
| 104 nM | COc1cccc(C#N)c1-c1cc(Cl)cc(C(CC(=O)O)c2nnc(C)o2)c1 (centres unmarked) [compound 156] |
| 2 nM | COc1cccc(OC)c1-c1cc(C(CC(=O)O)c2nnc(C)o2)cc(C(F)(F)F)c1 (centres unmarked) [compound 205] |
